Measurements as given in EP0326329B1, “Quinazoline derivatives useful as insecticides” (Dow AgroSciences LLC, priority 1988, dated 1989).

How the values were obtained:
Type in all cases: in vivo
[1] = tested on: Erysiphe graminis tritici (powdery mildew); experiment: Greenhouse Test 1, foliar spray fungicide screen (POWD MDEW), host wheat; details: disease control rating, 400 ppm (+++ at 100 ppm)
[2] = tested on: southern armyworm (Spodopetra eridania Cramer); experiment: Mite/insect screen, sprayed squash leaves (SAW); details: percent mortality; for mortality at 200 ppm / mortality at 400 ppm: Spodoptera eridania, read-out: SAW RESULTS %; for mortality at 200 ppm: spray rate 200 ppm
Description: (§1) The compounds of Examples 1-203 were tested for miticidal and insecticidal activity in the following mite/insect screen.
(§2) Each test compound was formulated by dissolving the compound in acetone/alcohol (50:50) mixture containing 23 g of "TOXIMUL R" (sulfonate/nonionic emulsifier blend) and 13 g of "TOXIMUL S" (sulfonate/nonionic emulsifier blend) per liter. These mixtures were then diluted with water to give the indicated concentrations.
(§3) Other plants in the same treatment pot were left uninfested. The leaves were then sprayed with 5 ml of test solution using a DeVilbiss atomizing sprayer at 10 psi. Both surfaces of the leaves were covered until runoff, and then allowed to dry for one hour. Two uninfested leaves were then excised and placed into a Petri dish containing larval southern armyworm (Spodopetra eridania Cramer).
(§4) After standard exposure periods, percent mortality and phytotoxicity were evaluated. […]

[3] = tested on: Puccinia recondita tritici (leaf rust); experiment: Greenhouse Test 1, foliar spray fungicide screen (LEAF RUST), host wheat; details: disease control rating, 400 ppm (+++ at 100 ppm)
[4] = tested on: Pyricularia oryzae (rice blast); details: disease control rating, foliar spray, host rice; 400 ppm (+++ at 100 ppm)
[5] = tested on: melon aphids (Aphis gossypii Glover); experiment: Mite/insect screen, sprayed squash cotyledons (MA); details: percent mortality; for mortality at 200 ppm / mortality at 400 ppm: Aphis gossypii, read-out: MA RESULTS %; for mortality at 200 ppm: spray rate 200 ppm
Description: as §1, §2, §3, §4

[6] = tested on: Pseudoperonospora cubensis (downy mildew); experiment: Greenhouse Test 1, foliar spray fungicide screen (DOWN MDEW), host squash; details: disease control rating, 400 ppm (+++ at 100 ppm)
[7] = tested on: Twospotted spider mites (Tetranychus urticae Koch); experiment: Mite/insect screen, sprayed squash cotyledons (SM); details: percent mortality; for mortality at 200 ppm / mortality at 400 ppm: Tetranychus urticae, read-out: SM RESULTS %; for mortality at 200 ppm: spray rate 200 ppm
Description: as §1, §2, §3, §4

[8] = tested on: Southern corn rootworm (Diabrotica undecimpuctata howardi Barber); experiment: Mite/insect screen, soil treatment (CRW); details: percent mortality, soil treatment; for mortality at 12 ppm / mortality at 24 ppm: Diabrotica, read-out: CRW RESULTS %; for mortality at 12 ppm: CRW rate 12.00 ppm
Description: as §1, §2
Activity on Southern corn rootworm (Diabrotica undecimpuctata howardi Barber) was evaluated by adding two ml of tap water, a presoaked corn seed, and 15 g of dry sandy soil to a one ounce plastic container. The soil was treated with 1 mL of test solution containing a pre-determined concentration of test compound. After six to 12 hours of drying, five 2-3 instar corn rootworm larvae were added to the individual cups, which were then capped and held at 23°C.
as §4

[9] = tested on: Botrytis cinerea (gray mold); experiment: Greenhouse Test 1, foliar spray fungicide screen (GRAY MOLD), host grape berries; details: disease control rating, 400 ppm (+++ at 100 ppm)

SMILES	POWD MDEW [1]	mortality at 200 ppm [2]	mortality at 400 ppm ([2]; spray rate 400 ppm)	SAW RESULTS % ([2]; spray rate 400 ppm)	LEAF RUST [3]	RICE BLAST [4]	mortality at 200 ppm [5]	mortality at 400 ppm ([5]; spray rate 400 ppm)	MA RESULTS % ([5]; spray rate 400 ppm)	DOWN MDEW [6]	mortality at 200 ppm [7]	mortality at 400 ppm ([7]; spray rate 400 ppm)	SM RESULTS % ([7]; spray rate 400 ppm)	mortality at 12 ppm [8]	mortality at 24 ppm ([8]; CRW rate 24.00 ppm)	CRW RESULTS % ([8]; CRW rate 24.00 ppm)	GRAY MOLD [9]
CC(C)(C)c1ccc(CCOc2ncnc3ccc(Br)cc23)cc1 [Example 175, 6-bromo-4-[2-[4-(t-butyl)phenyl]ethoxy]quinazoline]	- (- = 0-19% control at 400 ppm)	100%	0%	0%	+ (+ = 20-89% control at 400 ppm)	++ (++ = 90-100% control at 400 ppm)	80%	0%	0%	- (- = 0-19% control at 400 ppm)	60%	0%	0%	0%	0%	0%	- (- = 0-19% control at 400 ppm)
CCCCOc1ccc(CCOc2ncnc3ccccc23)cc1 [Example 180, 4-[2-(4-butoxyphenyl)ethoxy]quinazoline]	+++ (+++ = 90-100% control at 100 ppm)	0%	100%		+++ (+++ = 90-100% control at 100 ppm)	+++ (+++ = 90-100% control at 100 ppm)	50%	100%		+++ (+++ = 90-100% control at 100 ppm)	80%	100%		0%	0%		- (- = 0-19% control at 400 ppm)
c1ccc(Oc2ccc(CCCOc3ncnc4ccccc34)cc2)cc1 [Example 151, 4-[3-(4-phenoxyphenyl)propoxy]quinazoline]	+ (+ = 20-89% control at 400 ppm)	0%	0%		- (- = 0-19% control at 400 ppm)	- (- = 0-19% control at 400 ppm)	80%	0%		- (- = 0-19% control at 400 ppm)	0%	0%		0%	0%		- (- = 0-19% control at 400 ppm)
Clc1ccc2c(NCCc3cccc(Oc4ccccc4)c3)ncnc2c1 [Example 171, 7-chloro-N-[2-(3-phenoxyphenyl)ethyl]-4-quinazolinamine]	+++ (+++ = 90-100% control at 100 ppm)	0%	0%		+++ (+++ = 90-100% control at 100 ppm)	+++ (+++ = 90-100% control at 100 ppm)	80%	80%		+++ (+++ = 90-100% control at 100 ppm)	20%	40%		0%	0%		- (- = 0-19% control at 400 ppm)
Fc1cccc2c(OCCCc3ccc(Oc4ccccc4)cc3)ncnc12 [Example 119, 8-fluoro-4-[3-(4-phenoxyphenyl)propoxy]quinazoline]	+ (+ = 20-89% control at 400 ppm)	0%	90%		+ (+ = 20-89% control at 400 ppm)	++ (++ = 90-100% control at 400 ppm)	80%	0%		- (- = 0-19% control at 400 ppm)	50%	0%		0%	0%		- (- = 0-19% control at 400 ppm)
Clc1ccc(CCCc2ncnc3ccccc23)cc1 [Example 117, 4-[3-(4-chlorophenyl)propyl]quinazoline]	+++ (+++ = 90-100% control at 100 ppm)	0%	0%		+++ (+++ = 90-100% control at 100 ppm)	++ (++ = 90-100% control at 400 ppm)	90%	0%		++ (++ = 90-100% control at 400 ppm)	100%	0%		0%	0%		- (- = 0-19% control at 400 ppm)
